Patent publication US20080234236A1, “REDUCTION OF ADVERSE EVENTS AFTER PERCUTANEOUS INTERVENTION BY USE OF A THROMBIN RECEPTOR ANTAGONIST” (priority 2007, published 2008)

Key:
[1] = target: hERG (Homo sapiens, UniProt Q12809); test: hERG voltage clamp assay; type: cell-based
[2] = system: platelets; test: Collagen-induced platelet aggregation; type: in vivo, humans; conditions: collagen 5 and 50 μg/ml; loading and maintenance doses
Experimental: (§1) A pharmacodynamic substudy incorporating light aggregometry was performed under stringent physiologic conditions and read by a central core laboratory. […] The term “therpeutically effective amount of a thrombin receptor antagonist” will be understood to mean that quantity of the thrombin receptor antagonist sufficient to achieve at least 80% inhibition of TRAP mediated platelet aggregation.
(§2) Similarly, there is no effect on arachidonic acid (“AA”) -induced platelet aggregation (see FIGS. 16 and 17) or collagen-induced platelet aggregation (see FIGS. 18-21).

[3] = Phase 2 study (P03573): bleeding in secondary cohort (medically treated); type: in vivo, humans
Source text: (§3) The behavior of SCH 530348 in humans was further studied in a Phase 2 clinical development program. A key safety issue for SCH 530348 is the potential for incremental bleeding when added to standard of care with other oral antiplatelet therapies as well as parenteral antithrombotics. Therefore, a single Phase 2 study (P03573) was completed to evaluate the safety of SCH 530348 in patients at high risk of bleeding events, i.e., those patients undergoing non-emergent PCI (percutaneous coronary intervention). The goals of this Phase 2 study were to: • Evaluate the safety of SCH 530348 in addition to standard of care with respect to TIMI major and minor bleeding; and, • Observe the effects of SCH 530348 on major adverse cardiac events (“MACE”) in patients successfully completing an interventional procedure.
(§4) The primary endpoint (directed to evaluating safety) was the combined […] (“TIMI”) major and TIMI minor bleeding over sixty days in the primary evaluable cohort. Though the study was not powered to evaluate efficacy, a secondary endpoint (directed to evaluating efficacy) was the incidence of the composite of death and major adverse cardiac events (“MACE”) in the primary cohort. MACE includes myocardial infarction, urgent revascularization, and ischemia requiring hospitalization. Pharmacokinetics and pharmacodynamics were assessed at selected sites across the treatment groups. Other secondary endpoints included the incidence of TIMI major and minor bleeding in the secondary evaluable cohort i.e., those individuals who received the loading dose only.
The secondary cohort consisted of non-PCI patients who were treated medically (n=382) or underwent CABG (n=75). […] These included two vascular access site and one post-operative (surgical hip replacement) bleed.

[4] = system: dog Purkinje fibers; type: cell-based
[5] = system: human platelets; test: TRAP stimulated human platelet aggregation; type: cell-based
Source text: Schering-Plough Corp. is developing SCH 530348, which is a selective inhibitor of the primary thrombin receptor, PAR-1 (protease-activated receptor-1), on human platelets. […] Current clinical development of SCH 530348 is directed toward approval of a therapy that is adjunctive to current standard of care, e.g., the ADP antagonist clopidogrel and aspirin. However, an avoidance of bleeding risk by administration of an appropriate thrombin receptor antagonist as a monotherapy may have potential advantages over some of the currently approved antiplatelet drugs such as Plavix® (clopidogrel) and Ticlid® (ticolpidine) in certain situations such as PCI. Furthermore, the standard of care may evolve to encompass other ADP antagonists such as prasugrel. The treatment of PCI patients by administration of a thrombin receptor antagonist as adjunctive therapy to the standard of care encompasses future standards of care such as prasugrel, or any other ADP antagonist, and aspirin.

[6] = Pharmacokinetics: blood concentration of SCH 530348; type: in vivo, humans
Experimental: As the dose of SCH 530348 increased, the onset of platelet aggregation occurred at earlier sampling time points and maximum observed inhibition of aggregation increased, with 20 and 40 mg causing consistent maximum (>80%) inhibition of TRAP-induced platelet aggregation at 1-2 hours post dose. […] The duration of these pharmacodynamic effects is consistent with the drug's long elimination half-life.
This level of platelet inhibition is believed to be sufficient to lower the risks of adverse clinical events associated with PCI. […] The term “risk-abated PCI procedures” will be understood to mean those PCI procedures that are undertaken after the patient has achieved at least 80% platelet inhibition. This represents a marked improvement over the 4-6 hour period before risk-abated PCI can be performed using the current standard of care, i.e., clopidogrel and aspirin without a thrombin receptor antagonist.

[7] = Phase 2 study (P03573): death, MACE and other clinical events in primary (PCI) cohort; type: in vivo, humans; conditions: for Death/MACE, patients (%) / Death/MACE/Stroke, patients (%) / Death/MI, patients (%) / MACE, patients (%) / MI, patients (%) / Recurrent ischemia, patients (%) / Revascularization, patients (%) / Death, patients (%) / Stroke, patients (%): primary cohort (PCI); for Death/MACE, patients (%) / Death/MACE/Stroke, patients (%) / Death/MI, patients (%) / MACE, patients (%) / MI, patients (%) / Recurrent ischemia, patients (%) / Revascularization, patients (%): 60 days
Source text: as §3, §4
Although the Phase 2 study was neither designed nor powered to assess efficacy, i.e., reduction of clinical event rates, there was a 31% relative reduction observed in the composite of death and major adverse cardiac events (MACE) at sixty days in the SCH 530348 group (5.9%) versus placebo (8.6%) in the primary cohort. This difference was not statistically significant. All clinical events were adjudicated by a blinded Clinical Events Committee.

[8] = system: platelets; test: ADP-induced platelet aggregation; type: in vivo, humans; conditions: loading and maintenance doses
Experimental: as §1, §2

[9] = Coagulation parameters; set-up: species or system humans; conditions: in vivo
Source text: as §2

[10] = Bleeding time by modified Ivy method; set-up: species or system humans; conditions: in vivo
[11] = primary cohort, 40 mg loading dose

hERG, sequence (Q12809 whole entry): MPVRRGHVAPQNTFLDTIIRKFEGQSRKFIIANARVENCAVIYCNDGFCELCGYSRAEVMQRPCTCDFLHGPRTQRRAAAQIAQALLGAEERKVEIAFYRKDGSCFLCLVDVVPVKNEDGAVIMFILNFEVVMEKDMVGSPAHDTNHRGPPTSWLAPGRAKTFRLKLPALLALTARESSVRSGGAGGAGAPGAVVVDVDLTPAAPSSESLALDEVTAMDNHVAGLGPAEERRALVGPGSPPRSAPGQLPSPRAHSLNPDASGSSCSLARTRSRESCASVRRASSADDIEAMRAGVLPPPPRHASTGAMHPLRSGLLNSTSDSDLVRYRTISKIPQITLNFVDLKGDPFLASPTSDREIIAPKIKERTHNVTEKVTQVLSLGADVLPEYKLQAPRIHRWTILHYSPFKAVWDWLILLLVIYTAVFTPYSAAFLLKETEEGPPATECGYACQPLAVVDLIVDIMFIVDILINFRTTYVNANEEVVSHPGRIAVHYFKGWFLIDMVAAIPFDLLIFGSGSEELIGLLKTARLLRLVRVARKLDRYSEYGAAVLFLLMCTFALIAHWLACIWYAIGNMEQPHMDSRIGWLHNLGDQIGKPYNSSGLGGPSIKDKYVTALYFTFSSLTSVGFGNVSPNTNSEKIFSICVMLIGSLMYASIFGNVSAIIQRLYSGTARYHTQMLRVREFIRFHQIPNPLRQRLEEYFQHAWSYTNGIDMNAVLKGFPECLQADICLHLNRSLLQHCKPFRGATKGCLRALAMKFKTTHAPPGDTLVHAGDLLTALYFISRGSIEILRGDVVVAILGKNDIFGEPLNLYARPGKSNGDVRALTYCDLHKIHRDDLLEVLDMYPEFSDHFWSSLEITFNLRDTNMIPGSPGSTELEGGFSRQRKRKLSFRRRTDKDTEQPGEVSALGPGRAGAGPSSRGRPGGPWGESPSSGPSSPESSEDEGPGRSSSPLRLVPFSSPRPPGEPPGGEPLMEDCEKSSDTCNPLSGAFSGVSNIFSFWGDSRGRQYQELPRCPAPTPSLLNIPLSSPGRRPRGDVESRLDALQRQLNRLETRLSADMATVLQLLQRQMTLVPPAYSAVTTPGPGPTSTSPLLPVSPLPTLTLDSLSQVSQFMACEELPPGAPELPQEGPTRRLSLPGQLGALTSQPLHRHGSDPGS

Question: Which IC50 [1] does the source give for CCOC(=O)N[C@@H]1CC[C@@H]2[C@@H](C1)C[C@H]1C(=O)O[C@H](C)[C@H]1[C@H]2/C=C/c1ccc(-c2cccc(F)c2)cn1.O=S(=O)(O)O [SCH 530348, ethyl [(1R,3aR,4aR,6R,8aR,9S,9aS)-9-[(E)-2-[5-(3-fluorophenyl)-2-pyridinyl]ethenyl]-dodecahydro-1-methyl-3-oxonaphtho[2,3-c]furan-6-yl] carbamate bisulfate] here?
Answer: ~0.341 µM

Question: What about the “Effect on collagen-induced platelet aggregation” value [2] of the same compound?
Answer: no effect

Question: And the “Any bleed, patients (%)” value ([3]; 10 mg loading dose)?
Answer: 8%

Question: What about the “non-TIMI bleeding, patients (%)” value ([3]; 10 mg loading dose) of the same compound?
Answer: 8%

Question: And the “Any bleed, patients (%)” value ([3]; 20 mg loading dose)?
Answer: 12 (12%)

Question: What about the “TIMI Major/Minor bleeding, patients (%)” value ([3]; 20 mg loading dose) of the same compound?
Answer: 2 (2%)

Question: And the “TIMI Minor bleeding, patients (%)” value ([3]; 20 mg loading dose)?
Answer: 2 (2%)

Question: What about the “non-TIMI bleeding, patients (%)” value ([3]; 20 mg loading dose) of the same compound?
Answer: 11 (11%)

Question: And the “Any bleed, patients (%)” value ([3]; 40 mg loading dose)?
Answer: 10%

Question: And the “TIMI Major/Minor bleeding, patients (%)” value ([3]; 40 mg loading dose)?
Answer: 1 (1%)

Question: What about the “TIMI Minor bleeding, patients (%)” value ([3]; 40 mg loading dose) of the same compound?
Answer: 1 (1%)

Question: And the “non-TIMI bleeding, patients (%)” value ([3]; 40 mg loading dose)?
Answer: 10%

Question: And the “Any bleed, patients (%)” value ([3]; All SCH 530348)?
Answer: 10%

Question: And the “TIMI Major/Minor bleeding, patients (%)” value ([3]; All SCH 530348)?
Answer: 1%

Question: What about the “TIMI Minor bleeding, patients (%)” value ([3]; All SCH 530348) of the same compound?
Answer: 1%

Question: What about the “non-TIMI bleeding, patients (%)” value ([3]; All SCH 530348) of the same compound?
Answer: 10%

Question: And the “QT prolongation based on action potential duration” value [4]?
Answer: no evidence of QT prolongation

Question: What about the IC50 [5] of the same compound?
Answer: 0.015 µM

Question: What about the “Time to peak blood concentration levels” value ([6]; 40 mg loading dose) of the same compound?
Answer: in as little as one hour

Question: And the Elimination half-life ([6]; in vivo)?
Answer: long

Question: What about the “Death/MACE, patients (%)” value ([7]; 10 mg loading dose) of the same compound?
Answer: 8.5%

Question: And the “Death/MACE/Stroke, patients (%)” value ([7]; 10 mg loading dose)?
Answer: 9.3%

Question: What about the “Death/MI, patients (%)” value ([7]; 10 mg loading dose) of the same compound?
Answer: 5.4%

Question: And the “MACE, patients (%)” value ([7]; 10 mg loading dose)?
Answer: 8.5%

Question: And the “MI, patients (%)” value ([7]; 10 mg loading dose)?
Answer: 5.4%

Question: And the “Recurrent ischemia, patients (%)” value ([7]; 10 mg loading dose)?
Answer: 0.8%

Question: And the “Revascularization, patients (%)” value ([7]; 10 mg loading dose)?
Answer: 2.3%

Question: What about the “Death/MACE, patients (%)” value ([7]; 20 mg loading dose) of the same compound?
Answer: 5%

Question: And the “Death/MACE/Stroke, patients (%)” value ([7]; 20 mg loading dose)?
Answer: 5.0%

Question: And the “Death/MI, patients (%)” value ([7]; 20 mg loading dose)?
Answer: 4.2%

Question: And the “MACE, patients (%)” value ([7]; 20 mg loading dose)?
Answer: 5.0%

Question: And the “MI, patients (%)” value ([7]; 20 mg loading dose)?
Answer: 4.2%

Question: What about the “Revascularization, patients (%)” value ([7]; 20 mg loading dose) of the same compound?
Answer: 0.8%

Question: And the “Death/MACE, patients (%)” value ([7]; 40 mg loading dose)?
Answer: 4.6%

Question: And the “Death/MACE/Stroke, patients (%)” value ([7]; 40 mg loading dose)?
Answer: 4.6%

Question: What about the “Death/MI, patients (%)” value ([7]; 40 mg loading dose) of the same compound?
Answer: 4.0%

Question: And the “MACE, patients (%)” value ([7]; 40 mg loading dose)?
Answer: 4.0%

Question: What about the “MI, patients (%)” value ([7]; 40 mg loading dose) of the same compound?
Answer: 3.5%

Question: And the “Revascularization, patients (%)” value ([7]; 40 mg loading dose)?
Answer: 1.2%

Question: And the “Death/MACE, patients (%)” value ([7]; All SCH 530348)?
Answer: 5.9%

Question: And the “Death/MACE/Stroke, patients (%)” value ([7]; All SCH 530348)?
Answer: 6.2%

Question: And the “Death/MI, patients (%)” value ([7]; All SCH 530348)?
Answer: 4.5%

Question: What about the “MACE, patients (%)” value ([7]; All SCH 530348) of the same compound?
Answer: 5.7%

Question: And the “MI, patients (%)” value ([7]; All SCH 530348)?
Answer: 4.3%

Question: And the “Recurrent ischemia, patients (%)” value ([7]; All SCH 530348)?
Answer: 0.2%

Question: What about the “Revascularization, patients (%)” value ([7]; All SCH 530348) of the same compound?
Answer: 1.4%

Question: And the “Death, patients (%)” value ([7]; 10 mg loading dose)?
Answer: 0.8%

Question: And the “Stroke, patients (%)” value ([7]; 10 mg loading dose)?
Answer: 0.8%

Question: And the “Death, patients (%)” value ([7]; 40 mg loading dose)?
Answer: 0.6%

Question: What about the “Death, patients (%)” value ([7]; All SCH 530348) of the same compound?
Answer: 0.5%

Question: And the “Stroke, patients (%)” value ([7]; All SCH 530348)?
Answer: 0.2%

Question: What about the “Reduction in MI versus placebo” value [7, 11] of the same compound?
Answer: 52%

Question: What about the “Relative reduction in composite of death and MACE versus placebo” value [7, 11] of the same compound?
Answer: 47%

Question: And the “Relative reduction in composite of death and MACE at sixty days versus placebo” value ([7]; primary cohort, SCH 530348 group (all doses), not statistically significant)?
Answer: 31%

Question: And the “Effect on ADP-induced platelet aggregation” value [8]?
Answer: no effect

Question: And the Affecting coagulation parameters [9]?
Answer: without

Question: And the “Increasing bleeding time as measured by a modified Ivy method” value [10]?
Answer: without
